Data published in paper PMC7306898, “Concentration-Dependent Activity of Hydromethylthionine on Clinical Decline and Brain Atrophy in a Randomized Controlled Trial in Behavioral Variant Frontotemporal Dementia” (Journal of Alzheimer's Disease, 2020).

Experiments:
bvFTD patients [1] = assay: Whole brain volume (WBV) change by MRI (Boundary Shift Integral); assay type: in vivo, human
Description: (§1) The two doses were provided in identical blister packages as visually identical oral tablets to be taken for up to 52 weeks. The primary outcome was the Addenbrookes Cognitive Examination – Revised (ACE-R). The Functional Activities Questionnaire (FAQ) and reduction in progression of whole brain atrophy were alternative co-primary outcomes. Other outcomes included: Modified Alzheimer’s Disease Cooperative Study – Clinical Global Impression of Change (Modified-CGIC) determined by a third independent rater; Frontotemporal Dementia Rating Scale (FRS); MMSE (from MMSE items incorporated into ACE-R); Addenbrookes Cognitive Examination – III (a revised version of ACE-R which excludes MMSE items subject to copyright restrictions); change in brain volume measured by MRI in frontal and temporal lobes (FTV) and lateral ventricles (LVV); and the effect of hydromethylthionine in patients with known genetic mutations associated with bvFTD. Blood was collected prospectively for the purpose of population PK analyses.
MRI scans were obtained at screening and weeks 16, 32, and 52. The acquisition protocol was standardized across sites and all data were centrally collected, quality-controlled, and analyzed by the imaging core laboratory (Bioclinica). […] For data passing quality-control, baseline volume was automatically assessed using FreeSurfer v5.3, while volume changes were assessed using Boundary Shift Integral (whole brain, lateral ventricles) and Tensor-Based Morphometry (frontal and temporal lobes). […]
The primary analyses were specified as a mixed model, repeated-measures analysis with an unstructured covariance matrix and no imputation for missing data. The model included visit (three levels corresponding to assessments at weeks 16, 32, and 52), treatment group (two levels, 4 mg or 100 mg twice a day), a visit by treatment group interaction term, use of AD-labelled medications (two levels, using or not using), geographic region (three levels: North America, Asia/Australia, Europe), and baseline value of the variable analyzed. […]

bvFTD patients [2] = assay: Lateral ventricular volume (LVV) change by MRI; assay type: in vivo, human; settings: Patients receiving 8 mg/day, vs Cmax,ss ≤[…], 52 weeks
Description: as §1
MRI scans were obtained at screening and weeks 16, 32, and 52. The acquisition protocol was standardized across sites and all data were centrally collected, quality-controlled, and analyzed by the imaging core laboratory (Bioclinica). MRI data included a 3D sagittal T1-weighted sequence (using parameters compatible with the ADNI protocol) which was used for all volumetric analyses. […]

bvFTD patients [3] = assay: Frontotemporal Dementia Rating Scale (FRS), 52-week Phase III trial; assay type: in vivo, human
Description: as §1
The primary analyses were specified as a mixed model, repeated-measures analysis with an unstructured covariance matrix and no imputation for missing data. […]

AD patients = test system: AD patients; parameters: method as in PMID 31658058; settings: cited from earlier work

CN(C)c1ccc2c(c1)Sc1cc(N(C)C)ccc1N2 [hydromethylthionine, leuco-methylthioninium bis(hydromethanesulphonate)]
WBV: Decline±SEM for LMTM 8 mg/day group (bvFTD patients [1]; 8 mg/day, modeled change from baseline at 52 weeks): –21.64±1.56 cm^3
reduction in whole brain atrophy (bvFTD patients [1]; 8 mg/day, plasma levels above vs below […] threshold): 42%
WBV: Difference±SEM from LMTM 8 mg/day for 200 mg/day (bvFTD patients [1]; 200 mg/day vs 8 mg/day, 52 weeks): –1.35±2.32 cm^3
LVV: Difference±SEM for Cmax,ss > […] (bvFTD patients [2]): –4.12±1.06 cm^3
FRS: Decline±SEM for LMTM 8 mg/day group (bvFTD patients [3]; 8 mg/day (n = 110), modeled change from baseline at 52 weeks): –0.1240±0.0136
FRS: Difference±SEM from LMTM 8 mg/day for 200 mg/day (bvFTD patients [3]; 200 mg/day (n = 104) vs 8 mg/day, 52 weeks): 0.0075±0.0206
steady state plasma levels with steep concentration-response relationships on cognitive and MRI outcomes in AD (AD patients; 8 mg/day dose, AD ref 49): 0.3 to 0.8 ng/mL
estimated brain concentration required for pharmacological activity (AD patients): 0.02–0.06 μM
plasma concentration threshold (Cmax,ss) identified in mild/moderate AD (AD patients): 0.373 ng/mL
predicted optimal dose for treatment of AD (AD patients): about 16 mg/day
dose sufficient to ensure that all patients have plasma levels above the threshold required for pharmacological activity (AD patients; combined AD and bvFTD populations ref 49): 16 mg/day
plasma concentrations not associated with any additional benefit in AD (AD patients; doses 150–250 mg/day, AD ref 49): 4 to 21 ng/mL
